Compound: CCn1c(-c2nonc2N)nc2c(C#CC(C)(C)O)ncc(OC[C@H]3CCCNC3)c21 + COc1cc2c(Oc3ccc(NC(=O)C4(C(=O)Nc5ccc(F)cc5)CC4)cc3F)ccnc2cc1OCCCN1CCOCC1 [Foretinib] (partner 0.25 µM)
Assay: relative viability (nuclei count vs DMSO), 5 days (fraction); higher = more cells survive
Settings: first compound 1 µM
Summary of the method: (§1)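 One day after seeding in 1536-well plates, lung cancer cell lines were dosed by pin tool. Dosing was either single-drug or a fixed anchor-drug dose plus five library-drug doses (not always all listed) in √10 steps. After 5 days, nuclei were stained in one fix-and-stain step and counted on 4× images, and relative viability is the nuclei count of treated wells over that of vehicle wells, given as the median of duplicate plates.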

Row | Cell Line | relative viability
1 | NCI-H441 | 0.875
2 | NCI-H1734 | 0.799
3 | NCI-H460 | 1.11
4 | NCI-H2347 | 0.676
5 | SK-LU-1 | 0.749
6 | NCI-H1395 | 0.818
7 | 201T | 0.995
8 | NCI-H1915 | 1
9 | HCC-827 | 1.02
10 | LXF-289 | 0.955
11 | NCI-H23 | 0.916
12 | NCI-H647 | 1.22
13 | CAL-12T | 1.07
14 | NCI-H1651 | 0.779

Compound: CCOC1=CC=CC=C1N=NC2=C(NN(C2=O)C3=NC(=CS3)C4=CC=CC=C4)C [BAM7] + CC1(C)CCC(c2ccc(Cl)cc2)=C(CN2CCN(c3ccc(C(=O)NS(=O)(=O)c4ccc(N[C@H](CCN5CCOCC5)CSc5ccccc5)c(S(=O)(=O)C(F)(F)F)c4)cc3)CC2)C1 [Navitoclax] (partner 0.5 µM)
Assay: as above
Settings: first compound 0.5 µM
Summary of the method: as §1

Row | Cell Line | relative viability
15 | COR-L 105 | 0.825
16 | LOU-NH91 | 0.708
17 | ChaGo-K-1 | 0.882
18 | NCI-H2170 | 0.559
19 | NCI-H2405 | 0.946
20 | HOP-62 | 1.03
21 | LU99A | 0.787
22 | BEN | 0.0506
23 | HARA | 1.19
24 | HCC-78 | 0.901
25 | NCI-H322M | 1.3
26 | LCLC-97TM1 | 0.569
27 | NCI-H2009 | 1.25
28 | A-427 | 0.991
29 | NCI-H441 | 0.688
30 | NCI-H1734 | 0.877
31 | NCI-H460 | 1.36
32 | NCI-H2347 | 0.765
33 | SK-LU-1 | 0.487
34 | NCI-H1395 | 1.15
35 | 201T | 1.18
36 | NCI-H1915 | 0.756
37 | HCC-827 | 1.06
38 | LXF-289 | 0.96
39 | NCI-H23 | 0.978
40 | NCI-H647 | 1.11
41 | CAL-12T | 1.1
42 | NCI-H1651 | 1.01

Same assay, conditions: first compound 5 µM

Row | Cell Line | relative viability
43 | COR-L 105 | 0.664
44 | LOU-NH91 | 0.75
45 | ChaGo-K-1 | 1.18
46 | NCI-H2170 | 0.581
47 | NCI-H2405 | 1.11
48 | HOP-62 | 1.23
49 | LU99A | 0.849
50 | BEN | 0.068
51 | HARA | 1.19
52 | HCC-78 | 0.69
53 | NCI-H322M | 1.22
54 | LCLC-97TM1 | 0.401
55 | NCI-H2009 | 1.17
56 | A-427 | 0.921
57 | NCI-H441 | 0.772
58 | NCI-H1734 | 0.948
59 | NCI-H460 | 1.36
60 | NCI-H2347 | 0.918
61 | SK-LU-1 | 1.01
62 | NCI-H1395 | 1.14
63 | 201T | 1.27
64 | NCI-H1915 | 0.776
65 | HCC-827 | 1.04
66 | LXF-289 | 1.04
67 | NCI-H23 | 0.846
68 | NCI-H647 | 1.16
69 | CAL-12T | 1.2
70 | NCI-H1651 | 1.01

Same assay, conditions: first compound 15.81 µM

Row | Cell Line | relative viability
71 | COR-L 105 | 0.784
72 | LOU-NH91 | 0.69
73 | ChaGo-K-1 | 1.11
74 | NCI-H2170 | 0.479
75 | NCI-H2405 | 0.747
76 | HOP-62 | 1.04
77 | LU99A | 0.72
78 | BEN | 0.0675
79 | HARA | 1.08
80 | HCC-78 | 0.658
81 | NCI-H322M | 1.18
82 | LCLC-97TM1 | 0.419
83 | NCI-H2009 | 1.15
84 | A-427 | 0.974
85 | NCI-H441 | 0.635
86 | NCI-H1734 | 0.861
87 | NCI-H460 | 1.03
88 | NCI-H2347 | 0.806
89 | SK-LU-1 | 0.8
90 | NCI-H1395 | 1.1
91 | 201T | 1.12
92 | NCI-H1915 | 0.803
93 | HCC-827 | 0.914
94 | LXF-289 | 0.93
95 | NCI-H23 | 0.921
96 | NCI-H647 | 0.899
97 | CAL-12T | 1.14
98 | NCI-H1651 | 0.943

Same assay, conditions: first compound 50 µM

Row | Cell Line | relative viability
99 | COR-L 105 | 0.826
100 | LOU-NH91 | 0.655
101 | ChaGo-K-1 | 1.08
102 | NCI-H2170 | 0.598
103 | NCI-H2405 | 1
104 | HOP-62 | 1.06
105 | LU99A | 0.821
106 | BEN | 0.068
107 | HARA | 1.16
108 | HCC-78 | 0.796
109 | NCI-H322M | 1.06
110 | LCLC-97TM1 | 0.61
111 | NCI-H2009 | 1.17
112 | A-427 | 0.971
113 | NCI-H441 | 0.956
114 | NCI-H1734 | 0.771
115 | NCI-H460 | 1.08
116 | NCI-H2347 | 0.861
117 | SK-LU-1 | 0.827
118 | NCI-H1395 | 1.13
119 | 201T | 1.03
120 | NCI-H1915 | 0.807
121 | HCC-827 | 0.939
122 | LXF-289 | 0.907
123 | NCI-H23 | 0.934
124 | NCI-H647 | 1.14
125 | CAL-12T | 1.26
126 | NCI-H1651 | 1.09

Compound: CCn1c(-c2nonc2N)nc2c(C#CC(C)(C)O)ncc(OC[C@H]3CCCNC3)c21 + CC1(C)CCC(c2ccc(Cl)cc2)=C(CN2CCN(c3ccc(C(=O)NS(=O)(=O)c4ccc(N[C@H](CCN5CCOCC5)CSc5ccccc5)c(S(=O)(=O)C(F)(F)F)c4)cc3)CC2)C1 [Navitoclax] (partner 0.5 µM)
Assay: as above
Settings: first compound 0.01 µM
Summary of the method: as §1

Row | Cell Line | relative viability
127 | COR-L 105 | 0.613
128 | LOU-NH91 | 0.691
129 | ChaGo-K-1 | 1.1
130 | NCI-H2170 | 0.613
131 | NCI-H2405 | 0.892
132 | HOP-62 | 0.997
133 | LU99A | 0.714
134 | BEN | 0.0596
135 | HARA | 1.09
136 | HCC-78 | 0.661
137 | NCI-H322M | 1.25
138 | NCI-H2009 | 1.17
139 | A-427 | 0.941
140 | NCI-H441 | 0.48
141 | NCI-H1734 | 0.781
142 | NCI-H460 | 1.1
143 | NCI-H2347 | 0.849
144 | SK-LU-1 | 0.89
145 | NCI-H1395 | 1.04
146 | 201T | 1.21
147 | NCI-H1915 | 0.821
148 | HCC-827 | 1.03
149 | LXF-289 | 0.978
150 | NCI-H23 | 0.782
151 | NCI-H647 | 1.16
152 | CAL-12T | 1.24
153 | NCI-H1651 | 1.06

Same assay, conditions: first compound 0.03162 µM

Row | Cell Line | relative viability
154 | COR-L 105 | 0.715
155 | LOU-NH91 | 0.709
156 | ChaGo-K-1 | 0.88
157 | NCI-H2170 | 0.585
158 | NCI-H2405 | 0.873
159 | HOP-62 | 0.942
160 | LU99A | 0.959
161 | BEN | 0.0766
162 | HARA | 1.2
163 | HCC-78 | 0.826
164 | NCI-H322M | 1.27
165 | LCLC-97TM1 | 0.337
166 | NCI-H2009 | 1.17
167 | A-427 | 0.955
168 | NCI-H441 | 0.626
169 | NCI-H1734 | 0.921
170 | NCI-H460 | 1.17
171 | NCI-H2347 | 0.751
172 | SK-LU-1 | 0.936
173 | NCI-H1395 | 1.14
174 | 201T | 1.22
175 | NCI-H1915 | 0.778
176 | HCC-827 | 0.985
177 | LXF-289 | 0.949
178 | NCI-H23 | 0.807
179 | NCI-H647 | 0.96
180 | CAL-12T | 1.22
181 | NCI-H1651 | 1.02

Same assay, conditions: first compound 0.1 µM

Row | Cell Line | relative viability
182 | COR-L 105 | 0.74
183 | LOU-NH91 | 0.697
184 | ChaGo-K-1 | 0.951
185 | NCI-H2170 | 0.64
186 | HOP-62 | 1.04
187 | LU99A | 0.841
188 | BEN | 0.0603
189 | HARA | 1.14
190 | HCC-78 | 0.678
191 | NCI-H322M | 1.17
192 | LCLC-97TM1 | 0.475
193 | NCI-H2009 | 1.2
194 | A-427 | 0.913
195 | NCI-H441 | 0.591
196 | NCI-H1734 | 0.814
197 | NCI-H460 | 1.13
198 | NCI-H2347 | 0.813
199 | SK-LU-1 | 0.99
200 | NCI-H1395 | 1.11
201 | 201T | 1.26
202 | NCI-H1915 | 0.79
203 | HCC-827 | 1.06
204 | LXF-289 | 0.935
205 | NCI-H23 | 0.868
206 | NCI-H647 | 1.14
207 | CAL-12T | 1.3
208 | NCI-H1651 | 1.01

Same assay, conditions: first compound 0.3162 µM

Row | Cell Line | relative viability
209 | COR-L 105 | 0.67
210 | LOU-NH91 | 0.632
211 | ChaGo-K-1 | 0.899
212 | NCI-H2170 | 0.493
213 | NCI-H2405 | 0.883
214 | HOP-62 | 0.951
215 | LU99A | 0.776
216 | BEN | 0.0534
217 | HARA | 1.16
218 | HCC-78 | 0.654
219 | NCI-H322M | 1.13
220 | LCLC-97TM1 | 0.641
221 | NCI-H2009 | 1.12
222 | A-427 | 0.973
223 | NCI-H441 | 0.65
224 | NCI-H1734 | 0.821
225 | NCI-H460 | 1.05
226 | NCI-H2347 | 0.796
227 | SK-LU-1 | 0.921
228 | NCI-H1395 | 1.08
229 | 201T | 1.19
230 | NCI-H1915 | 0.488
231 | HCC-827 | 1.03
232 | LXF-289 | 0.886
233 | NCI-H23 | 0.794
234 | NCI-H647 | 1.08
235 | CAL-12T | 1.33
236 | NCI-H1651 | 1.14

Same assay, conditions: first compound 1 µM

Row | Cell Line | relative viability
237 | COR-L 105 | 0.654
238 | LOU-NH91 | 0.572
239 | ChaGo-K-1 | 1.14
240 | NCI-H2170 | 0.529
241 | NCI-H2405 | 1
242 | HOP-62 | 1.05
243 | LU99A | 0.807
244 | BEN | 0.0741
245 | HARA | 1.14
246 | HCC-78 | 0.71
247 | NCI-H322M | 1.23
248 | LCLC-97TM1 | 0.328
249 | NCI-H2009 | 1.11
250 | A-427 | 1.02
251 | NCI-H441 | 0.556
252 | NCI-H1734 | 0.816
253 | NCI-H460 | 1.19
254 | NCI-H2347 | 0.882
255 | SK-LU-1 | 0.761
256 | NCI-H1395 | 0.882
257 | 201T | 1.17
258 | NCI-H1915 | 0.76
259 | HCC-827 | 1.04
260 | LXF-289 | 0.926
261 | NCI-H23 | 0.833
262 | NCI-H647 | 1.14
263 | CAL-12T | 1.06
264 | NCI-H1651 | 1

From the supplement of paper PMC10307832
